From BindingDB's records for doi:10.1016/s0960-894x(03)00789-3 (Wyeth Research, 2003)
pIC50: −log10 of the molar value.

Biological target: Human cytomegalovirus protease (assemblin, UL80)
Test: In vitro inhibitory activity against HCMV (human cytomegalovirus) protease using scintillation proximity assay

| pIC50 | Compound |
| --- | --- |
| 6.52 | Cc1ccc(-c2nnc3nc(C)c(C)c(=O)n3n2)cc1 [7,8-Dimethyl-3-p-tolyl-pyrimido[1,2-b][1,2,4,5]tetrazin-6-one] |
| 7.00 | Cc1nc2nncnn2c(=O)c1C [7,8-Dimethyl-pyrimido[1,2-b][1,2,4,5]tetrazin-6-one] |
| 6.40 | Cc1nc2nnc(-c3ccccc3)nn2c(=O)c1C [7,8-Dimethyl-3-phenyl-pyrimido[1,2-b][1,2,4,5]tetrazin-6-one] |

The next lines start with the molecule.

| Compound | pIC50 |
| --- | --- |
| Cc1nc2nnc(C(c3ccccc3)c3ccccc3)nn2c(=O)c1C [3-Benzhydryl-7,8-dimethyl-pyrimido[1,2-b][1,2,4,5]tetrazin-6-one] | 5.77 |
| Cc1nnc2nc(C)c(C)c(=O)n2n1 [3,7,8-Trimethyl-pyrimido[1,2-b][1,2,4,5]tetrazin-6-one] | 6.52 |
| Cc1nc2nnc(C(C)(C)C)nn2c(=O)c1C [3-tert-Butyl-7,8-dimethyl-pyrimido[1,2-b][1,2,4,5]tetrazin-6-one] | 6.22 |
| COc1ccc(-c2nnc3nc(C)c(C)c(=O)n3n2)cc1 [3-(4-Methoxy-phenyl)-7,8-dimethyl-pyrimido[1,2-b][1,2,4,5]tetrazin-6-one] | 6.30 |
| Cc1nc2nnc(-c3ccc([N+](=O)[O-])cc3)nn2c(=O)c1C [7,8-Dimethyl-3-(4-nitro-phenyl)-pyrimido[1,2-b][1,2,4,5]tetrazin-6-one] | 5.77 |
